Measured values as given in patent US11440914B2, “Tricyclic amine compounds as CDK2 inhibitors” (Incyte Corporation, priority 2019, dated 2022).

Columns and labels:
[1] = system: Rb phosphorylation at S780 in CCNE1-amplified cell lines (OVCAR3 and COV318); test: Western blot of Rb phosphorylation at S780 in CCNE1-amplified cell lines; assay type: cell-based, human; settings: various doses, 1 or 15 hours
Experimental: (§1) The effect of CDK4/6-inhibition on Rb phosphorylation at S780 in CCNE1-amplified versus CCNE1-non-amplified cell lines was evaluated. […] One or 15 hours after treatment, the cells were harvested and total protein was extracted and analyzed by western blot (FIG. 8).
(§2) Whole cell extracts were prepared using RIPA buffer (Thermo Scientific, 89900) with a Halt Protease and Phosphatase Inhibitor Cocktail (Thermo Scientific, 78440). Protein concentration was quantified with a BCA Protein Assay Kit (Thermo Scientific, 23225) and […] of protein lysates were loaded for SDS-PAGE using precast gradient gels (Bio-Rad, Hercules, No. 456-1094). Samples were diluted in 5× Laemmli buffer (300 mM Tris-HCl pH 6.8, 10% SDS (w/v), 5% 2-mercaptoethanol, 25% glycerol (v/v), 0.1% bromophenol blue w/v) and boiled for 5 minutes. […] of proteins were separated by 8-15% SDS-PAGE and transferred onto polyvinylidene fluoride (PVDF) membranes. Unspecific binding sites on the PVDF membranes were blocked with 5% non-fat milk in TBST (20 mM Tris-HCl, pH 7.6, 137 mM NaCl, 1% Tween-20). […] Images were captured by Luminescence/Fluorescence Imaging System Odyssey CLx Imager (LI-COR).

[2] = system: Rb phosphorylated on serine 780 in CCNE1 amplified COV318 cells; test: CDK2 pRb (S780) HTRF cellular assay; assay type: cell-based; settings: Homo sapiens, overnight treatment, read-out: IC50 in p-RB S780 HTRF cellular assay
Experimental: CDK2 pRb ([…]) HTRF cellular assay enables the quantitative detection of Rb phosphorylated on […] in CCNE1 amplified COV318 cells. The assay comprised two antibodies: Europium cryptate labeled anti-Phospho-Rb […] antibody (donor) and d2 labeled anti-Rb antibody (acceptor). In brief, COV318 cells were seeded into the wells of 96-well plate at a density of 25,000 per well with 9-point, 3-fold serial diluted compounds and cultured overnight at 37 degree with 5% CO2. The final concentrations of compounds start from 3 μM. […] After 2 h of incubation at room temperature, HTRF signals were measured on the PHERAstar microplate reader (BMG Labtech), using 340 nm as excitation wavelength, a 620 nm filter for the Europium donor fluorescence, and a 665-nm filter for the acceptor fluorescence detection. HTRF signals were calculated as the HTRF ratio (ratio of fluorescence measured at 665 nm and 620 nm)×10000.

[3] = system: Rb phosphorylation at S780 in CCNE1-non-amplified cell lines (COV504 and OV56); test: Western blot of Rb phosphorylation at S780 in CCNE1-non-amplified cell lines; assay type: cell-based, human; settings: various doses, 1 or 15 hours
Experimental: as §1, §2

[4] = system: CCNE1-non-amplified cell lines (COV504, OV56, Igrov1); test: Cell cycle analysis by FACS in CCNE1-non-amplified cell lines; assay type: cell-based, human
Experimental: (§3) The effect of CDK4/6-inhibition in CCNE1-amplified versus CCNE1-non-amplified cell lines was evaluated.
(§4) A similar experiment was performed in a larger set of CCNE1-amplified cell lines (COV318 and OVCAR3) and CCNE1-non-amplified cell lines (COV504, OV56, and Igrov1) (FIG. 6).
(§5) Bulk DNA was stained with DAPI. Compound-treated and DMSO treated control cells were acquired with CytoFlex (Beckman Coulter) and were analyzed using the FlowJo software. For cell cycle analysis of cells with siRNA knockdown, 72 hours after siRNA transfection, cells exposed to […] for 3 hours before detection of Click-iT Alexa Fluor® 647 azide kit.

[5] = system: CCNE1-amplified cell lines (OVCAR3, COV318); test: Cell cycle analysis by FACS in CCNE1-amplified cell lines; assay type: cell-based, human; settings: for percentage of S phase cells: 100 nM, 16 hours
Experimental: as §3, §4
To confirm the role of p16 in CDK2-sensitivity of CCNE-amplified cells, COV318 cells were treated with control or p16-specific siRNA.
as §5

CDK2/Cyclin E1 = CDK2/Cyclin E1 (Homo sapiens (Human), UniProt P24941); test: CDK2/Cyclin E1 HTRF enzyme activity assay; assay type: biochemical; settings: 1 mM ATP
Experimental: CDK2/Cyclin E1 enzyme activity assays utilize full-length human CDK2 co-expressed as N-terminal GST-tagged protein with FLAG-Cyclin E1 in a baculovirus expression system (Carna Product Number 04-165). Assays are conducted in white 384-well polystyrene plates in a final reaction volume of 8 μL. CDK2/Cyclin E1 (0.25 nM) is incubated with compounds (40 nL serially diluted in DMSO) in the presence of ATP (50 μM or 1 mM) and 50 nM ULight™-labeled eIF4E-binding protein 1 (THR37/46) peptide (PerkinElmer) in assay buffer (containing 50 mM HEPES pH 7.5, 1 mM EGTA, 10 mM MgCl2, 2 mM DTT, 0.05 mg/ml BSA, and 0.01% Tween 20) for 60 minutes at room temperature. The reactions are stopped by the addition of EDTA and Europium-labeled anti-phospho-4E-BP1 antibody (PerkinElmer), for a final concentration of 15 mM and 1.5 nM, respectively. HTRF signals are read after 1 hour at room temperature on a PHERAstar FS plate reader (BMG Labtech). Data is analyzed with IDBS XLFit and GraphPad Prism 5.0 software using a three or four parameter dose response curve to determine IC50 for each compound.

IC50 (CDK2/Cyclin E1) [nM]	Compound	Rb phosphorylation at S780 [1]	IC50 [2] [nM]	Rb phosphorylation at S780 [3]	percentage of cells at the S phase as compared to DMSO ([4]; COV504, OV56, Igrov1, 16 hours after treatment)	proliferation (cell cycle analysis by FACS) ([4]; COV504 cells, 16 hours, increasing concentrations)	percentage of cells at the S phase as compared to DMSO ([5]; COV318 and OVCAR3, 16 hours after treatment)	percentage of S phase cells ([5]; COV318, control siRNA)	percentage of S phase cells ([5]; COV318, p16 knocked down by siRNA, vs DMSO)
–	CC(=O)c1c(C)c2cnc(Nc3ccc(N4CCNCC4)cn3)nc2n(C2CCCC2)c1=O [palbociclib]	not in CCNE1-amplified cell lines	> 3000	blocked Rb phosphorylation	decreased in CCNE1-non-amplified cell lines in a dose-dependent fashion	dose-dependent inhibition of the proliferation	not significantly different	–	–
–	C[C@@]1(O)CCC[C@H]1n1c(=O)ccc2cnc(NC3CCN(S(C)(=O)=O)CC3)nc21 [Compound A, 8-((1R,2R)-2-hydroxy-2-methylcyclopentyl)-2-((1-(methylsulfonyl)piperidin-4-yl)amino)pyrido[2,3-d]pyrimidin-7(8H)-one]	–	37	–	–	–	–	significantly decreased	not significantly decreased
≤ 50	Cc1nc2c(n1C)-c1nc(NC3CCN(S(=O)(=O)c4cnn(C)c4)CC3)ncc1CC2 [Example 3, 1,2-Dimethyl-N-(1-((1-methyl-1H-pyrazol-4-yl)sulfonyl)piperidin-4-yl)-4,5-dihydro-1H-imidazo[4,5-h]quinazolin-8-amine]	–	–	–	–	–	–	–	–
